From patent US20250018030A1, “PHARMACEUTICAL COMPOSITION FOR PROMOTING CANCER IMMUNOTHERAPY AND METHOD FOR PROMOTING CANCER IMMUNOTHERAPY” (China Medical University, priority 2023, published 2025)

Key:
[1] = system: Th2 cells and regulatory T cells (Treg); experiment: Populations of Th2 cells and Treg cells after genipin; type: cell-based, Mouse; conditions: genipin-treated; data not shown
Method: Mouse lymph nodes and spleens were harvested, and naïve CD4 or CD8 T cells isolated via magnetic bead separation (STEMCELL Technologies) and activated in α-CD3 (10 μg/ml) and α-CD28 (1 μg/ml) pre-coated 96-well plates. Skewing conditions were as follows: Th1 cells/Tc1 cells ([…] 10 μ/ml α-IL-4), Th2 cells/Tc2 cells (20 ng/ml IL-4 and 10 μ/ml α-IFN-γ), Th17 cells/Tc17 cells (20 ng/ml IL-6, 1.25 ng/ml […], 20 ng/ml IL-1β, 20 ng/ml IL-23, 10 μg/ml α-IFN-γ and 10 μg/ml α-IL-4), and Treg cells (5 ng/ml TGF-β, 10 μg/ml α-IFN-γ and 10 μg/ml α-IL-4) in the indicated medium. Cells were cultured for 4-5 days followed by treatment with genipin (3.125 μM, 6.25 μM, 12.5 μM) or DMSO for 12-16 hours.
(§1) Monoclonal antibodies were purchased from BD Biosciences or eBioscience. For intracellular cytokine staining (ICS), cells were first restimulated by PMA/ionomycin for 5 hours in the presence of GolgiStop (BD Biosciences), followed by surface epitope staining markers before being fixed/permeabilized (BD Cytofix/Cytoperm™) and stained with antibodies targeting intracellular antigens. Cells were finally fixed with 1.5% formaldehyde for 10 minutes at room temperature and analyzed on a FACSVerse flow cytometer (BD Bioscience). Data were analyzed using FlowJo software (Tree Star Inc.).

[2] = system: Pan18 cells; experiment: Tumorigenicity assay, Pan18 subcutaneous implantation (PDAC-bearing mice); type: in vivo
Method: as §1
For Pan18-subcutaneous implantation, 5×10^5 Pan18 cells were administered to wild-type (WT) or IL-17^−/− mice. Genipin (5 mg/kg, 10 mg/kg, or 30 mg/kg, i.p., every two days) was administered to Pan18-bearing mice for 3 weeks. For 3036-subcutanous implantation, 2×10^5 3036 cells were administered to WT mice. Genipin (10 mg/kg, i.p., every two days) and recombinant anti-IL-17 receptor antibody (αIL-17RA) (1 mg/kg, i.v., once a week) were administered to 3036-bearing mice for 3 weeks. Tumor volumes were evaluated every 2 days. For the orthotopic tumor modelling, mice pancreases were injected with 2×10^5 Pan18 cells and monitored for tumor growth weekly using IVIS kinetics imaging system (Caliper Life-Sciences). Genipin (10 mg/kg, i.p., every two days) or αIL-17RA (1 mg/kg, i.v., once a week) was administered 1 week after tumor implantation. Mice were sacrificed 35 days after tumor induction and tumors weighed. For spontaneous pancreatic cancer model, Cre-dependent conditional knockin mutations of KrasG12D Kras^+/LSLG12D mice (B6; 129-Kras2) were obtained from the Mouse Models of Human Cancer Consortium. Elas-CreERT; Kras^+/LSLG12D mice was generated by breeding Kras^+/LSLG12D mice with Elas-CreER mice obtained from the Level Transgenic Center. To induce the expression of Kras^+/LSLG12D in acinar cells, 5-week-old Elas-CreERT; Kras^+/LSLG12D male mice were injected with 100 μl of tamoxifen (20 mg/ml, i.p., three times per week) for 1 week. To induce chronic inflammation and tumors, 100 μl of cerulein (50 μg/ml, i.p., six times per week) (BACHEM) was given to the mice for 3 weeks. Then, the mice were injected with genipin (10 mg/kg, i.p., every two days) and αIL-17RA (1 mg/kg, i.v., once a week) until the end of the experiment, and overall survival was monitored. For genetically CD4/CD8-specific UCP2 deletion tumor modelling, we generated CD4Cre×UCP2^f/f mice by crossing loxP-UCP2-loxP mice with CD4Cre mice. CD4Cre×UCP2^f/f, WT, and loxP control mice underwent subcutaneous implantation of 2×10^5 Pan18 cells, followed by treatment with αIL-17RA (1 mg/kg, i.v., once a week) for 3 weeks. For melanoma modelling, IL-17/-and WT mice underwent subcutaneous implantation of 5×10^5 B16F10 cells, followed by treatment with genipin (10 mg/kg, i.p., every two days) for 3 weeks. For CD8 depletion tumor modelling, IL-17^−/− mice underwent subcutaneous implantation of 2×10^5 Pan18 cells, followed by treatment with genipin (10 mg/kg, i.p., every two days) and CD8 neutralizing antibody (5 mg/kg, i.v., once a week) for 3 weeks. Tumor volumes were evaluated every 3 days.
Serum levels of IFN-γ, IL-17, TNF-α, IL-12, IL-6, and TGF-β were measured using commercial enzyme-linked immunosorbent assay (ELISA) kits (BD Biosciences; R&D systems; BioLegend) according to the manufacturer's protocol.
Total protein concentration of the tumor lysates was quantified by a Bradford assay. Tumoral chemokine profiles were determined by analyzing 250 μg protein from the tumor lysates using a Proteome Profiler™ Mouse Chemokine Array Kit (ARY020, R&D Systems) according to the manufacturer's instructions. […]

[3] = system: Tc1 cells; experiment: RNA-seq gene expression analysis of genipin-treated Tc1 cells; type: cell-based, Mouse
Method: For RNA-seq analysis, the differential gene expression analysis was conducted by RNA-seq quantification following the procedure of Illumina and was performed by Genomics (Taiwan). Low-quality bases and sequencing adapters in the raw data generated from the Illumina sequencer were removed, and the final library quality was assessed on the Agilent Bioanalyzer 2100 system. The gene expression profiles in the genipin-treated and control Tc1 cells were analyzed and compared. The differentially expressed genes were calculated by EBSeq, and functional analysis, such as (gene ontology) GO analysis, was performed using cluster Profiler. For real-time PCR, total RNA was extracted using the RNeasy Micro Kit (Qiagen), and cDNA was synthesized with the PrimeScript™ RT reagent kit (TakaRa). Real-time PCR amplification of IFN-γ was performed in triplicate using TaqMan Gene Expression Assay (Mm01168134_m1) in a Step One Plus system (Applied Biosystems). 18S primers were used as endogenous controls, and the relative gene expression was calculated using the 2^ΔΔCt method.

[4] = IL-17−/− mice, genipin 5 or 10 mg/kg, dose-dependent, FIG. 5C
[5] = IL-17−/− mice, genipin, data not shown
[6] = WT mice, escalating doses of genipin, FIG. 3S
[7] = genipin-treated Tc1 cells, FIG. 2D

## COC(=O)C1=CO[C@@H](O)[C@@H]2C(CO)=CC[C@H]12 [genipin]
[1]
  Population of Th2 cells: nor significantly altering the populations
  Population of regulatory T cells (Treg): nor significantly altering the populations
[2]; IL-17−/− mice, genipin 5 or 10 mg/kg i.p. every two days, 3 weeks, FIG. 5A-5B
  Tumor growth (tumor volume, tumor weight): synergistic effect to inhibit tumor growth
[2]; [4]
  Serum IFN-γ: increased
  Serum IL-12: increased
  Serum TNF-α: increased
[2]; IL-17−/− mice, genipin, FIG. 5D
  Numbers of Tc1 cells: increased numbers of Tc1 cells
[2]; IL-17−/− mice, genipin, FIG. 5G
  Numbers of MDSC: decreased numbers of MDSC
[2]; [5]
  IL-17-ablation driven change in CCL2 level: had no effects
  IL-17-ablation driven change in CXCL10 level: had no effects
[2]; WT mice, escalating doses of genipin i.p. every two days, 3 weeks, FIG. 3A-3C
  Absolute numbers of Tc1 cells: increases in the absolute numbers
[2]; [6]
  Serum IFN-γ: increased
  Serum IL-6: increased
  Serum IL-12: increased
  Serum TNF-α: increased
[2]; WT mice, escalating doses of genipin, end of experiment, FIG. 3S
  Serum IL-17: increased
[2]; WT mice, genipin alone, FIG. 3T-3U
  Tumorigenesis (tumor volume, tumor weight): did not suppress tumorigenesis
[2]; WT mice, genipin i.p. every two days, 3 weeks, FIG. 3D-3F
  Absolute numbers of Th1 cells: increases in the absolute numbers
[2]; WT mice, genipin i.p. every two days, 3 weeks, FIG. 3G-3I
  Numbers of Tc17 cells: increased
[2]; WT mice, genipin i.p. every two days, 3 weeks, FIG. 3J-3L
  Numbers of Th17 cells: increased
[2]; WT mice, genipin i.p., FIG. 3M-3O
  Numbers of Treg cells in the lymph nodes and spleens: decreased
[2]; WT mice, genipin i.p., FIG. 3P-3R
  Numbers of MDSC in the lymph nodes and spleens: decreased
[2]; WT mice, genipin i.p., tumor
  Tumor infiltrating MDSC: no changes
  Tumor infiltrating Tc1 cells: no changes
  Tumor infiltrating Th1 cells: no changes
[3]; genipin 12.5 μM, FIG. 2C
  Expression of genes that control IFN-γ signaling, leukocyte activation and bioenergetic metabolism (GOBP enrichment): correlated positively
[3]; [7]
  Expression of genes related to T cell activation and migration (Tbx21, Ccl5, Eomes, Il12rb2, Ctla2a, Ctla2b): augmented the expression
  Expression of glycolytic pathway genes (Hk2, Gck, Pfkl, Aldoc, Pgam1, Eno2, Ldha): increased expression
